Reference: patent US11479528B2, “Heat shock protein 90 inhibitors” (TAIPEI MEDICAL UNIVERSITY, priority 2017, dated 2022)
Where two headings read alike, the source gives them in different places.

Columns and labels:
[1] = system: colorectal HCT116; experiment: Sulforhodamine B (SRB) assay, colorectal HCT116; type: cell-based; settings: Homo sapiens
Description: (§1) Human cancer cells were purchased from the American Type Culture Collection (Manassas, Va., USA). These cell lines were cultured in RPMI 1640 medium or DMEM supplemented with 10% FBS (v/v) and pencillin (100 U/mL)/streptomycin (100 ug/mL)/amphotericin B (0.25 ug/mL). Cultures were maintained at 37° C. in a humidified atmosphere of 5% CO2/95% air.
(§2) Cells were seeded in 96-well plates in medium with 5% fetal bovine serum. After 24 h, cells were fixed with 10% trichloroacetic acid to represent cell population at the time of drug addition (T0). After additional incubation of DMSO or drugs for 48 h, cells were fixed with 10% trichloroacetic acid and sulforhodamine B at 0.4% (w/v) in 1% acetic acid was added to stain cells. Unbound sulforhodamine B was washed out by 1% acetic acid and sulforhodamine B-bound cells were solubilized with 10 mmol/L Trizma base. The absorbance was read at a wavelength of 515 nm. Using the following absorbance measurements, such as time zero (T0), control growth (C), and cell growth in the presence of the drug (Tx), the percentage growth was calculated at each of the compound concentrations levels. Percentage growth inhibition was calculated as […].

[2] = system: prostate PC3; experiment: Sulforhodamine B (SRB) assay, prostate PC3; type: cell-based; settings: Homo sapiens, Table 1, 48 h
Description: as §1, §2

[3] = system: lung A549; experiment: Sulforhodamine B (SRB) assay, lung A549; type: cell-based, human; settings: Homo sapiens
Description: Human cancer cells were purchased from the American Type Culture Collection (Manassas, Va., USA).
Cells were seeded in 96-well plates in medium with 5% fetal bovine serum. […] Unbound sulforhodamine B was washed out by 1% acetic acid and sulforhodamine B-bound cells were solubilized with 10 mmol/L Trizma base. […] Using the following absorbance measurements, such as time zero (T0), control growth (C), and cell growth in the presence of the drug (Tx), the percentage growth was calculated at each of the compound concentrations levels. Percentage growth inhibition was calculated as […].

[4] = system: breast MDA-MB-231; experiment: Sulforhodamine B (SRB) assay, breast MDA-MB-231; type: cell-based; settings: Homo sapiens, read-out: GI50 Breast MDA-MB-231
Description: as §1, §2

[5] = target: HSP90 α protein (Homo sapiens, UniProt P07900); experiment: HSP90 ATP-binding / fluorescence polarization competition assay (enzyme inhibition)
Description: To assess the inhibition of HSP90 activity within a cellular context, cells were treated with certain substituted aromatic compounds of formula (I) and the inhibition of HSP90 ATP-binding activity in cells was determined by using an ATP pull-down assay. Cells were treated with the compounds for 24 hours and then lysed in TNESV buffer (50 mM Tris, 2 mM EDTA, […], 1 mM activated sodium orthovanadate, 25 mM NaF, 1% Triton X-100 [pH 7.5]) for 30 min at 4° C. Lysates were spun for 30 min at 12000 rpm at 4° C. Protein (200 ug) was incubated with conditioned γ-ATP-polyacrylamide resin in incubation buffer (10 mM Tris-HCl, 50 mM KCl, 5 mM MgCl2, 20 mM Na2MoO4, 0.01% Nonidet P-40) overnight at 4° C., rotating. The resin was then washed four times with incubation buffer. Bound proteins were isolated by boiling with SDS buffer. For the competition studies, fluorescence polarization assays were performed under the following conditions: each 96-well plate contained 5 nM fluorescent GM (geldanamycin), 30 nM HSP90 α protein, and tested inhibitor in a final volume of 100 uL. For each assay, background wells (buffer only), tracer controls (free, fluorescent GMonly), and bound GM controls (fluorescent GM in the presence of HSP90) were included on each assay plate. The fraction of tracer bound to HSP90 was correlated to the mP value and plotted against log 10 values of competitor concentrations. The inhibitor concentration at which 50% of bound GM was displaced was obtained by fitting the data.

[6] = system: liver Hep3B; experiment: Sulforhodamine B (SRB) assay, liver Hep3B; type: cell-based; settings: Homo sapiens, 48 h, read-out: GI50 Liver Hep3B
Description: as §1, §2

[7] = system: human colon HCT116 xenograft; experiment: Human colon HCT116 xenograft model; settings: 100 mg/kg, po; for TGI, tumor growth inhibition: n = 7-8
Description: An in vivo study was conducted to evaluate the efficacy of compounds of formula (I) in suppressing tumor growth in a human colon HCT116 xenograft model.

[8] = system: HUVEC cells; experiment: Sulforhodamine B (SRB) assay, HUVEC; settings: Homo sapiens, HUVEC, 48 h, read-out: GI50 HUVEC
Description: as §1, §2

[9] = Maximum tolerated dose and therapeutic index in vivo
[10] = Pharmacokinetic profiles in rat; settings: in vivo
Description: A pharmacokinetic study was conducted to evaluate the pharmacokinetic properties of compounds of formula (I).

[11] = HCT-116, Table 1, SRB, 48 h, read-out: GI50 Colorectal HCT116
[12] = A549, Table 1, SRB, 48 h, read-out: GI50 Lung A549

## CC(C)c1cc(C(=O)N(c2ncnc3c2ccn3C)C(C)C)c(O)cc1O [Compound 27e, 2,4-dihydroxy-N, 5-diisopropyl-N-(7-methyl-7H-pyrrolo[2,3-d]pyrimidin-4-yl)benzamide]
[1]; [11]
  GI50: 8.77 ± 0.1 µM
[2]
  GI50: > 10 µM

## CC(C)c1cc(C(=O)Nc2ncnc3c2ccn3C)c(O)cc1O [Compound 27a, 2,4-dihydroxy-5-isopropyl-N-(7-methyl-7H-pyrrolo[2,3-d]pyrimidin-4-yl)benzamide]
[1]; [11]
  GI50: > 10 µM
[2]
  GI50: > 10 µM

## CCCN(C(=O)c1cc(C(C)C)c(O)cc1O)c1cnc2ccccc2c1 [Compound 28d, 2,4-dihydroxy-5-isopropyl-N-propyl-N-(quinolin-3-yl)benzamide]
[1]; [11]
  GI50: 1.21 ± 0.13 µM
[2]
  GI50: 2.33 ± 0.04 µM
[3]; [12]
  GI50: 1.16 ± 0.1 µM

## CC(C)c1cc(C(=O)N(C)c2ncnc3c2ccn3C)c(O)cc1O [Compound 27b, 2,4-dihydroxy-5-isopropyl-N-methyl-N-(7-methyl-7H-pyrrolo[2,3-d]pyrimidin-4-yl)benzamide]
[1]; [11]
  GI50: 8.96 ± 0.18 µM
[2]
  GI50: 8.49 ± 0.49 µM

## CC(C)c1cc(C(=O)N(C)c2ccc3c(c2)CCCN3)c(O)cc1O [Compound 33a, 2,4-dihydroxy-5-isopropyl-N-methyl-N-(1,2,3,4-tetrahydroquinolin-6-yl)benzamide]
[1]; [11]
  GI50: 5.79 ± 0.11 µM
[2]
  GI50: 7.66 ± 0.42 µM

## CCCN(C(=O)c1cc(C(C)C)c(O)cc1O)c1ncnc2c1ccn2C [Compound 27d, 2,4-dihydroxy-5-isopropyl-N-(7-methyl-7H-pyrrolo[2,3-d]pyrimidin-4-yl)-N-propylbenzamide]
[1]; [11]
  GI50: > 10 µM
[2]
  GI50: > 10 µM

## CCN(C(=O)c1cc(C(C)C)c(O)cc1O)c1ccc2c(c1)CCCN2 [Compound 33b, N-ethyl-2,4-dihydroxy-5-isopropyl-N-(1,2,3,4-tetrahydroquinolin-6-yl)benzamide]
[1]; [11]
  GI50: 5.38 ± 0.1 µM
[2]
  GI50: 6.01 ± 0.41 µM

## CCN(C(=O)c1cc(C(C)C)c(O)cc1O)c1ccc2[nH]ccc2c1 [Compound 20c, N-ethyl-2,4-dihydroxy-N-(1H-indol-5-yl)-5-isopropylbenzamide]
[4]; MDA-MB-231, 48 h
  GI50: 0.08 ± 0.01 µM
[5]
  IC50: 0.117 ± 0.00962 µM
[1]; HCT-116, 48 h, read-out: GI50 Colorectal HCT116
  GI50: 0.37 ± 0.05 µM
[1]; HCT-116, read-out: HCT116 GI50
  GI50: 0.37 ± 0.05 µM
[6]
  GI50: 0.11 ± 0.02 µM
[7]; qd × 7/5 on 2 off, Day 7
  Loss of Body: −15.4%
[7]; qd × 7/5 on 2 off
  TGI, tumor growth inhibition: 33.1%
[8]
  GI50: < 0.1 µM
[9]; MTD/MED
  TI, Therapeutic Index, ratio of MTD to minimum efficacious dose (MED): 1
[9]; in vivo, po
  MTD: 100 mg/kg
[3]; A549, 48 h, read-out: GI50 Lung A549
  GI50: 0.11 ± 0.01 µM
[3]; A549, read-out: A549 GI50
  GI50: 0.11 ± 0.01 µM
[10]; iv, 2 mg/kg
  AUC(0-inf): 234 ± 114 ng·h/mL
  Vd: 9 ± 2.8 L/kg
  clearance: 170 ± 64 mL/min/kg
  half-life: 1.5 ± 0.5 h
[10]; po, 20 mg/kg
  AUC(0-inf): 499 ± 38 ng·h/mL
  Cmax: 67 ± 23 ng/mL
  Tmax: 2.7 ± 1.2 h
  bioavailability: 22%
  half-life: 5.9 ± 1.6 h

## CC(C)c1cc(C(=O)N(C)c2ccc3c(c2)CCCN3C)c(O)cc1O [Compound 33c, 2,4-dihydroxy-5-isopropyl-N-methyl-N-(1-methyl-1,2,3,4-tetrahydroquinolin-6-yl)benzamide]
[1]; [11]
  GI50: 6.51 ± 0.09 µM
[2]
  GI50: 8.5 ± 0.45 µM

## CC(C)c1cc(C(=O)Nc2cnc3c(ccn3C)c2)c(O)cc1O [Compound 24b, 2,4-dihydroxy-5-isopropyl-N-(1-methyl-1H-pyrrolo[2,3-b]pyridin-5-yl)benzamide]
[1]; [11]
  GI50: > 10 µM
[2]
  GI50: > 10 µM
[3]; [12]
  GI50: > 10 µM

## CCN(C(=O)c1cc(C(C)C)c(O)cc1O)c1cc(C)nc2ccccc12 [Compound 32c, N-ethyl-2,4-dihydroxy-5-isopropyl-N-(2-methylquinolin-4-yl)benzamide]
[1]; [11]
  GI50: 5.99 ± 0.3 µM
[2]
  GI50: 6.3 ± 0.3 µM
[3]; [12]
  GI50: 5.67 ± 0.06 µM

## CCN(C(=O)c1cc(C(C)C)c(O)cc1O)c1ccc2c(c1)CCCN2C [Compound 33d, N-ethyl-2,4-dihydroxy-5-isopropyl-N-(1-methyl-1,2,3,4-tetrahydroquinolin-6-yl)benzamide]
[1]; [11]
  GI50: 5.71 ± 0.12 µM
[2]
  GI50: 8.18 ± 0.46 µM

## CC(C)c1cc(C(=O)Nc2cnc3[nH]ncc3c2)c(O)cc1O [Compound 26a, 2,4-dihydroxy-5-isopropyl-N-(1H-pyrazolo[3,4-b]pyridin-5-yl)benzamide]
[1]; [11]
  GI50: > 10 µM
[2]
  GI50: > 10 µM
[3]; [12]
  GI50: > 10 µM

## CCN(C(=O)c1cc(C(C)C)c(O)cc1O)c1ccncc1 [Compound 19b, N-ethyl-2,4-dihydroxy-5-isopropyl-N-(pyridin-4-yl)benzamide]
[4]; MDA-MB-231, Table 1, SRB, 48 h
  GI50: 0.08 ± 0.01 µM
[5]; 5 nM fluorescent GM, 30 nM HSP90 α, read-out: HSP90 IC50 enzyme inhibition
  IC50: 0.109 ± 0.00535 µM
[1]; [11]
  GI50: 0.64 ± 0.41 µM
[1]; HCT-116, Table 2, SRB, read-out: HCT116 GI50
  GI50: 0.64 ± 0.41 µM
[6]; Table 1, SRB
  GI50: 0.1 ± 0.01 µM
[7]; qd
  TGI, tumor growth inhibition: 29.1%
[8]
  GI50: < 0.1 µM
[3]; [12]
  GI50: 0.12 ± 0.01 µM
[3]; A549, Table 2, SRB, read-out: A549 GI50
  GI50: 0.12 ± 0.01 µM
[10]; iv, 2 mg/kg
  Vd: 12 ± 8.9 L/kg
[10]; iv, 2 mg/kg, AUC(0-inf), IV (2 mg/kg)
  AUC(0-inf): 442 ± 49 ng·h/mL
[10]; iv, 2 mg/kg, CL, IV (2 mg/kg)
  clearance: 75 ± 4.8 mL/min/kg
[10]; iv, 2 mg/kg, T1/2, rat, IV (2 mg/kg)
  half-life: 8.1 ± 4.7 h
[10]; po, 20 mg/kg
  Cmax: 51 ± 9 ng/mL
  Tmax: 0.3 ± 0.1 h
  bioavailability: 11%
[10]; po, 20 mg/kg, AUC(0-inf), PO (20 mg/kg)
  AUC(0-inf): 485 ± 103 ng·h/mL
[10]; po, 20 mg/kg, T1/2, rat, PO (20 mg/kg)
  half-life: 11 ± 7.6 h

## CC(C)c1cc(C(=O)N(C)c2cccc3ncccc23)c(O)cc1O [Compound 29b, 2,4-dihydroxy-5-isopropyl-N-methyl-N-(quinolin-5-yl)benzamide]
[1]; [11]
  GI50: > 10 µM
[2]
  GI50: > 10 µM
[3]; [12]
  GI50: > 10 µM

## CC(C)c1cc(C(=O)N(C)c2cccc3cccnc23)c(O)cc1O [Compound 31b, 2,4-dihydroxy-5-isopropyl-N-methyl-N-(quinolin-8-yl)benzamide]
[1]; [11]
  GI50: > 10 µM
[2]
  GI50: 8.93 ± 0.25 µM
[3]; [12]
  GI50: 8.7 ± 0.25 µM

## CCN(C(=O)c1cc(C(C)C)c(O)cc1O)c1ncnc2c1ccn2C [Compound 27c, N-ethyl-2,4-dihydroxy-5-isopropyl-N-(7-methyl-7H-pyrrolo[2,3-d]pyrimidin-4-yl)benzamide]
[1]; [11]
  GI50: 3.49 ± 0.15 µM
[2]
  GI50: 6.68 ± 0.55 µM
